Laboratory results reported in US20240350503A1, “COMPOUNDS FOR TREATMENT OF VIRAL INFECTIONS BY NEUROTROPIC VIRUS” (priority 2021, published 2024).
Entries after “also recorded” stand apart in the source; their conditions may differ.

Tested on: SARS-CoV-2
Type: cell-based, SARS-CoV-2 alpha variant

SMILES: c1ccc(-c2ccc(CNc3nc(-c4ccccn4)nnc3-c3ccccc3)cc2)cc1 [ML228]
- SARS-CoV-2 replication (virus N2 RNA level): strongly reduced; also recorded: significantly decreased
